Laboratory results taken from US8974827B2, “Nanoparticles comprising a non-ionizable cellulosic polymer and an amphiphilic non-ionizable block copolymer” (Bend Research, Inc., priority 2007, dated 2015).
≈ marks a conversion by molar mass, not a printed value.

Assays:
[1] = Solubility of drug in water; type: physicochemical
Procedure: The utility of the invention increases as the water solubility of the drug decreases. […] The Tg of non-crystalline Drug 1 was determined by DSC analysis to be 55° C., while the Tm of crystalline Drug 1 was 170° C.

Log P of drug = type: physicochemical; settings: octanol/water
Text: The first property of hydrophobic drugs is that they are extremely hydrophobic. Log P, defined as the base 10 logarithm of the ratio of the drug solubility in octanol to the drug solubility in water, is a widely accepted measure of hydrophobicity. By “extremely hydrophobic” is meant that the Log P value of the drug is at least 4.0, preferably at least 4.5, and most preferably at least 5.0. Log P may be measured experimentally or calculated using methods known in the art. When using a calculated value for Log P, the highest value calculated using any generally accepted method for calculating Log P is used. Calculated Log P values are often referred to by the calculation method, such as Clog P, Alog P, and Mlog P. The Log P may also be estimated using fragmentation methods, such as Crippen's fragmentation method (27 J. Chem. Inf. Comput. Sci. 21 (1987)); Viswanadhan's fragmentation method (29 J. Chem. Inf. Comput. Sci. 163 (1989)); or Broto's fragmentation method (19 Eur. J. Med. Chem.-Chim. Theor. 71 (1984).

[2] = Free drug analysis by centrifuge filtration (30,000-dalton cutoff) and HPLC; type: physicochemical; settings: 30,000-dalton cutoff centrifuge filter, HPLC
Procedure: The nanoparticle suspension was centrifuged for 3 minutes at 13,000 rpm using a 30,000-dalton molecular-weight cutoff centrifuge tube filter, and 50 μL of the supernatant was added to 250 μL acetonitrile. The sample was assayed by HPLC.

[3] = Solubility in model fasted duodenal (MFD) solution; type: physicochemical; settings: fassgf or other biorelevant, PBS containing 7.3 mM sodium taurocholic acid and 1.4 mM POPC
[4] = for Observations: pH 6.5
Procedure: An appropriate PBS solution is an aqueous solution comprising 20 mM sodium phosphate (Na2HPO4), 47 mM potassium phosphate (KH2PO4), 87 mM NaCl, and 0.2 mM KCl, adjusted to pH 6.5 with NaOH. A test to determine whether the cellulosic polymer is insoluble may be performed as follows. The cellulosic polymer is initially present in bulk powder form with average particle sizes of greater than about 1 micron. The polymer alone is administered at a concentration of 0.2 mg/mL to the PBS solution and stirred for approximately 1 hour at room temperature. Next, a nylon 0.45 μm filter is weighed, and the solution is filtered. The filter is dried overnight at 40° C., and weighed the following morning.
First, 0.2 mg/mL of the polymer was added to a PBS solution consisting of 20 mM Na2HPO4, 47 mM KH2PO4, 87 mM NaCl, and 0.2 mM KCl, adjusted to pH 6.5 with NaOH. The polymer was stirred in the PBS solution for approximately 1 hour at room temperature. Next, the polymer solution was filtered through a nylon 0.45 μm filter that was weighed dry prior to filtration. The filter was dried overnight at 40° C., and weighed the following morning. The amount of soluble polymer was calculated from the amount of polymer added to form the polymer solution minus the amount of polymer remaining on the filter.

| solubility [1] [µg/mL] | Observations [4] | Amount Soluble at pH 6.5 [4] [mg/mL] | Compound | also measured |
| --- | --- | --- | --- | --- |
|  | Stabilizer dissolved |  | Polyethylene glycol 8000 [PEG 8000] | Soluble at pH 6.5 [4]: 0.2 mg/mL |
|  | Fine particle suspension | <0.001 | ethylcellulose |  |
|  | Fine particle suspension | 0.02 | poly(DL-lactide-co-glycolide 50:50) [PLGA] |  |

Second part, the compound before the results:

| Compound | solubility [1] [µg/mL] | Observations [4] | Amount Soluble at pH 6.5 [4] [mg/mL] | also measured |
| --- | --- | --- | --- | --- |
| Cc1onc(-c2ccccc2)c1-c1ccc(S(N)(=O)=O)cc1 [Drug 1, 4-(5-methyl-3-phenyl-4-isoxazolyl)benzenesulfonamide] | ~10 (≈ 31.8 µM) |  |  | logP (Log P of drug): ~3; Free Drug [2]: 11 µg/mL |
| CC[C@@H]1C[C@H](N(Cc2cc(C(F)(F)F)cc(C(F)(F)F)c2)C(C)=O)c2cc(C(F)(F)F)ccc2N1C(=O)OC(C)C [Drug 2, [2R,4S] 4-[acetyl-(3,5-bis-trifluoromethyl-benzyl)-amino]-2-ethyl-6-trifluoromethyl-3,4-dihydro-2H-quinoline-1-carboxylic acid isopropyl ester] | < 1 |  |  |  |
| Cc1ccc(-c2cc(C(F)(F)F)nn2-c2ccc(S(N)(=O)=O)cc2)cc1 [Drug 3, celecoxib] |  |  |  | solubility [3]: ~40 µg/mL (≈ 105 µM) |
